Here are results for 10 molecules from patent US12660818B2, “Strigolactone analogs and methods of using” (King Abdullah University of Science and Technology, priority 2019, dated 2026).

In data set [1] the test system is rice (cv IAC-165) leaf segments. Kind of data set: Dark-induced leaf senescence of rice leaf segments. Particulars: 3.0 μM; for ion leakage (loss of membrane integrity): continued to increase till day 6; for chlorophyll content: third and fourth day of treatment. How it is done:
Rice seeds (cv IAC-165) were surface sterilized with 50% sodium hypochlorite solution and 0.05% Tween-20, and germinated on moist filter paper in the sealed petri plates. The petri plates with germinated seeds were transferred to white fluorescent light (130-180 μM m^−2 s^−1) with 16 h:8 h (L/D) at 28° C., to establish seedlings for one week. Seven days old uniform seedlings were selected and transferred to 50 ml tubes containing half strength modified Hoaglands nutrient solution. After one week, 2 cm leaf segments were cut from middle part of third leaves of rice plants. Each segment was put in a well (in 12-well plates) containing 4 ml of 3.0 mM MES buffer with 0.05% Tween-20. MP16 and GR24 were applied at 3.0 μM concentration. Plates were incubated at 30° C. in the dark for 7 days. After application of MP16 and GR24, plates were monitored on a daily basis and changes in leaf color, chlorophyll content and ion leakage were monitored.

Data set [2] deals with SL insensitive d3 rice mutant. Put plainly: Rice micro tillering bioassay, SL insensitive d3 mutant. In kind it is in vivo. Conditions: 2.5 μM, three weeks, no effect of treatment. How it is done:
(§1) After sterilization with 50% sodium hypochlorite, rice seeds (d10/CCD8 and d3 mutants) were germinated on moist filter paper in the dark at 30° C. The germinated seeds were then transferred to light in a growth cabinet with fluorescent white light (130-180 μM m^−2 s^−1) at 30° C. for seven days. One-week old rice seedlings were shifted to 50 ml falcon tubes (one seedling per tube) filled with half-strength modified Hoagland nutrient solution. The tubes with rice seedlings were kept in green house to grow at 30° C. and 70% humidity. After one week, the rice seedlings were treated with 2.5 μM of each SL analog. Mock and GR24 (2.5 μM) were included as control treatments. Each of the SL analogs (MPs 16-18 and 21-25) was applied twice per week up to three weeks. Number of tillers per plant, plant height and dry biomass were measured after three weeks of SL analogs application at final harvest.
(§2) Standard procedure was adopted to collect data for each trait, which were analyzed statistically using statistical software package R (version 3.2.2). One-way analysis of variance (ANOVA) and LSD (Least significant difference) multiple range test were applied to investigate the effect of various SL analogs (MPs 16-18 and 21-25) for various parameters. Half Maximum Effective Concentration (EC50) was calculated using IC50 toolkit (http://www.ic50.tk/index.html).

The target of another data set is ShHTL7 (Striga hermonthica, UniProt A0A0M3PNA2). Kind of data set: In vitro YLG (Yoshimulactone Green) hydrolysis competition assay with ShHTL7. In kind it is biochemical. Conditions: competition with 1.0 μM YLG, 60 min, room temperature. The protocol: (§3) Purification of ShHTL7/OsD14 was carried out by adopting the procedure explained previously (Jamil et al., 2018). In vitro YLG hydrolysis assays were conducted as described before (Tsuchiya et al., 2015). About 3.0 μM of purified ShHTL7/OsD14 protein was used in a reaction buffer (1×PBS buffer, pH 7.3) with 0.1% dimethyl sulfoxide (DMSO) at a 100 μl volume on a 96-well black plate (Greiner). SL analogs (at range between 0.01 to 50 μM) were co-incubated with 1.0 μM of YLG (Tokyo Chemical Industry Co. Ltd., product number E1238) for 60 min at room temperature. In this competition assay, fluorescent intensity was measured by spectraMax i5 (Molecular Devices) at excitation at 480 nm and detection at 520 nm. The variation in fluorescence recorded over the course of 1 h of YLG incubation in protein-free buffer was subtracted from the data collected in presence of protein. IC50 values were calculated by using Quest Graph™ IC50 Calculator.
Sequence of ShHTL7 (A0A0M3PNA2 entry or part of it): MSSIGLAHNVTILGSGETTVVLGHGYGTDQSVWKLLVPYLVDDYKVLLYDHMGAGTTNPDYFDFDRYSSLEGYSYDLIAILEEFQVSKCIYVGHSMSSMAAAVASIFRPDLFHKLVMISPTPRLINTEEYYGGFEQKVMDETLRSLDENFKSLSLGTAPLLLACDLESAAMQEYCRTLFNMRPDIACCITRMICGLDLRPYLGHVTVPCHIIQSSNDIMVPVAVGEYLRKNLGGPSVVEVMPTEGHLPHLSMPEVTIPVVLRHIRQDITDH

The test system of a further data set is P. aegyptiaca seeds. Put plainly: Parasitic seed germination bioassay, Phelipanche. The format is in vivo, Phelipanche aegyptiaca. Particulars: 2.5 μM; for Phelipanche aegyptiaca germination rate: one week at 25° C. in dark. How it is done:
(§4) Seeds of the two root parasitic species S. hermonthica and P. aegyptiaca were tested for germination in response to MP compounds application. After pre-conditioning, as previously described (Jamil et al., 2012), Striga and Phelipanche seeds were first tested with each MP solutions at 2.5 μM concentration (55 μl per disc) and then at a concentration range from 10^−5M to 10^−12M, to calculate EC50. Sterile MilliQ water and GR24 were applied as a negative and a positive control, respectively. Treated seeds were incubated in dark for 24 h at 30° C. (for S. hermonthica) and for one week at 25° C. (for P. aegyptiaca). Germination was recorded under a binocular microscope and used to determine the germination rate (%).

For a further data set, the target named is T1, OsD14 (Oryza sativa subsp. japonica, UniProt Q10QA5).
T1 construct: made in house
T1 sequence (Q10QA5 1-318): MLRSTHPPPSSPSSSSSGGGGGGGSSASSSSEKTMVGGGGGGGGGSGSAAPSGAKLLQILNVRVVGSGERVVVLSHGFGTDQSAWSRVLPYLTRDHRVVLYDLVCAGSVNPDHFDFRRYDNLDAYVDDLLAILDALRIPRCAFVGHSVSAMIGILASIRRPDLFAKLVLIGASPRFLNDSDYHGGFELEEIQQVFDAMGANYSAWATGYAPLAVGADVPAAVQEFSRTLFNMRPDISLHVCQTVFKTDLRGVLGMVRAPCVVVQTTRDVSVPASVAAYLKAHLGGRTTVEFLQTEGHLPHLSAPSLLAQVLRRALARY
Put plainly: In vitro YLG (Yoshimulactone Green) hydrolysis competition assay with OsD14. In kind it is biochemical, rice. The protocol:
as §3

In data set [3] the test system is S. hermonthica seeds. Put plainly: Parasitic seed germination bioassay, Striga. The format is in vivo, Striga hermonthica. Particulars: for Striga germination rate / Striga germination rate (comparison in words): 2.5 μM; for Striga germination rate: 24 h at 30° C. in dark; for EC50: 10^−5M to 10^−12M. The protocol:
as §2, §4

The subject of data set [4] is S. hermonthica seeds. Conditions: previously described MPs, cited from earlier work.
In data set [5] the test system is SL deficient d10/CCD8 rice mutant. Kind of data set: Rice micro tillering bioassay, SL deficient d10/CCD8 mutant. Particulars: 2.5 μM. The format is in vivo. How it is done: as §1, §2
Data set [6] in a line: Chemical stability in aqueous solution monitored by HPLC/UPLC. In kind it is physicochemical. Particulars: aqueous solution pH 5.5-6.0, 21±1° C., HPLC, up to 3 weeks. The protocol: Three selected MPs (MP16, MP18, MP21) and rac-GR24 were tested for their chemical stability at 21±1° C. in aqueous solution with a pH of 5.5-6.0, as described previously (Jamil et al., 2018). Compound solution (1 mg ml^−1) was prepared with […] and 750 μl Mili-Q water. Thereafter, 25 μl Indanol (1 mg ml^−1, internal standard) was spiked in 975 μl previous prepared solution. The time course of degradation was monitored in about 50 μl aliquots by UPLC analysis using an Agilent HPLC ZORBAX Eclipse XDB-C18 column ([…], 4.6×150 mm) eluted first by 5% acetonitrile in water for 0.5 min then by a gradient from 5% to 100% acetonitrile within 18 min in water, and finally by 100% acetonitrile for 5 min. The column was operated at 40° C. at […] flow rate. Compounds eluted from the column were detected with a photodiode array detector, and the relative quantity of non-degraded amount was calculated using Indanol as internal standard. Stability was monitored at 24 h intervals up to 3 weeks.

Read-outs that look alike come from different tables or passages of the source.

Consider `CC1=C[C@H](O/C=C2/C(=O)O[C@@H]3c4ccccc4C[C@H]23)OC1=O` [GR24, reference compound], for which the “loss of the green color of leaf segments (time)” value in [1] (dark, 30° C., one day earlier than mock control) is recorded as “on the third day after application”. For the same molecule, the “ion leakage (loss of membrane integrity)” value in data set [1] (dark) is “began to increase on the third day of treatment”. In addition, the chlorophyll content result in [1] was “significant reduction”. The “number of tillers per plant” value in data set [2] was determined as 4. Also, the concentration for half-maximal inhibition (IC50) (in general, the point on the concentration scale where inhibition reaches its midpoint) on ShHTL7 was found to be 980 ± 260 nM. Also, the “Phelipanche aegyptiaca germination rate” value in the data set on P. aegyptiaca seeds is listed as 43%. The half-maximal inhibitory concentration (IC50) on OsD14 (competition with 1.0 μM YLG, 60 min, room temperature, read-out: IC50, OsD14-mediated YLG hydrolysis) amounted to 1040 ± 90 nM. Besides, in the data set with S. hermonthica seeds [3], the Striga germination rate worked out at 72% and a half-maximal response (EC50) required 0.0723 nM.

`COC(=O)/C(=C/OC1C=C(C)C(=O)O1)c1ccc([N+](=O)[O-])cc1` (centres unmarked) [MP1]: the “EC50 relative to that of GR24 (Jamil et al., 2018)” value in the data set on S. hermonthica seeds [4] is reported as “about 17 times”. In addition, the concentration for a half-maximal effect (EC50) – broadly, the concentration that produces a half-maximal response – with S. hermonthica seeds [4] (read-out: EC50 (Striga seed germination, Jamil et al., 2018)) is 1.5 nM.

`CC1=CC(O/C=C(\C(=O)N(C)C)c2ccccc2)OC1=O` (centres unmarked) [MP16, (Z)—N,N-Dimethyl-3-((4-methyl-5-oxo-2,5-dihydrofuran-2-yl)oxy)-2-phenylacrylamide]: in data set [5] (d10 mutant, compared to mock treatment), the “tillering inhibition (in words)” value is “more effective compared with MPs 19 and 20”. Further, the “effect on growth, biomass and plant height” value in [5] (rice seedlings, compared with GR24) was “stunted growth and triggered senescence in rice seedlings, leading to reduced biomass and plant height”. Also, the “ion leakage (loss of membrane integrity)” value in data set [1] (dark) is reported as “began to increase on the third day of treatment”. Also, the chlorophyll content result in [1] is given as “significant reduction”. Moreover, the “stability (relative amount of non-degraded compound) compared to GR24” value in [6] is “in the range of that of GR24”. The same molecule displayed an IC50 on ShHTL7 of 4370 ± 210 nM. Moreover, the “Phelipanche aegyptiaca germination rate” value in the data set with P. aegyptiaca seeds is recorded as “around 51%”. Moreover, the IC50 at OsD14 worked out at 3070 ± 540 nM. For the same molecule, in the data set on S. hermonthica seeds [3], the “Striga germination rate (comparison in words)” value was “higher than MPs 19 and 20”; the Striga germination rate worked out at 62%. Also, the EC50 in the data set on S. hermonthica seeds [3] (Striga hermonthica) was determined as 0.105 nM. Besides, in the data set with S. hermonthica seeds [3] (Striga seed germination), the “EC50 compared with MPs 19 and 20” value is “lower EC50 than MPs 19 and 20”; the “EC50 relative to that of GR24” value is listed as “less than two times higher”.

With `CC1=CC(O/C=C(/C(=O)Oc2ccccc2)c2ccccc2)OC1=O` (centres unmarked) [MP17, (E)-Phenyl 3-((4-methyl-5-oxo-2,5-dihydrofuran-2-yl)oxy)-2-phenylacrylate], in the data set on S. hermonthica seeds [3], the “Striga germination rate (comparison in words)” value was “lower germination rate”. The molecule further returned an EC50 in the data set with S. hermonthica seeds [3] (Striga hermonthica) of 4350 nM.

Consider `CC1=CC(O/C=C(/C(=O)OCc2ccccc2)c2ccccc2)OC1=O` (centres unmarked) [MP18, (E)-Benzyl 3-((4-methyl-5-oxo-2,5-dihydrofuran-2-yl)oxy)-2-phenylacrylate], for which the “stability (relative amount of non-degraded compound) compared to GR24” value in [6] was “in the range of that of GR24”. Also, in the data set on P. aegyptiaca seeds, the “Phelipanche aegyptiaca germination rate” value is “around 51%”. Also, the “Striga germination rate (comparison in words)” value with S. hermonthica seeds [3] is “lower germination rate”. The molecule also gave an EC50 in the data set with S. hermonthica seeds [3] (Striga hermonthica) of 6.44 nM. The “EC50 compared with MPs 19 and 20” value in the data set with S. hermonthica seeds [3] (Striga seed germination) is “lower EC50 than MPs 19 and 20”.

Turning to `CC1=CC(O/C=C(/C(=O)OCC(C)C)c2ccccc2)OC1=O` (centres unmarked) [MP19, reference compound], the “Phelipanche seed germination (comparison in words)” value (from here on “Phelipanche seed germination”) in the data set on P. aegyptiaca seeds was “comparable germination rate as MPs 16 and 18”.

As to `CC1=CC(O/C=C(/C(=O)OCc2ccccc2)c2ccccc2)OC1=O` (centres unmarked) [MP21, (E)-Benzyl 3-((4-methyl-5-oxo-2,5-dihydrofuran-2-yl)oxy)-2-phenylacrylate], the “stability (relative amount of non-degraded compound) compared to GR24” value in data set [6] is listed as “higher degradation rate, compared to GR24”. The “Phelipanche seed germination” value in the data set with P. aegyptiaca seeds is “lower activity”. In addition, the “EC50 compared with MPs 19 and 20” value in the data set on S. hermonthica seeds [3] (Striga seed germination) is “lower EC50 than MPs 19 and 20”.

For the molecule `CC1=CC(O/C=C(/C(=O)Oc2cccc(Cl)c2)c2ccccc2)OC1=O` (centres unmarked) [MP22, (E)-3-Chlorophenyl 3-((4-methyl-5-oxo-2,5-dihydrofuran-2-yl)oxy)-2-phenylacrylate], the “Phelipanche seed germination” value in the data set with P. aegyptiaca seeds was “lower activity”.

With `CC1=CC(O/C=C(/C(=O)Oc2ccc(C)cc2)c2ccccc2)OC1=O` (centres unmarked) [MP24, (E)-p-Tolyl 3-((4-methyl-5-oxo-2,5-dihydrofuran-2-yl)oxy)-2-phenylacrylate], the “Phelipanche seed germination” value in the data set with P. aegyptiaca seeds is on record as “lower activity”.

With `CC1=CC(O/C=C(/C(=O)Oc2cccc3ccccc23)c2ccccc2)OC1=O` (centres unmarked) [MP25, (E)-naphthalen-1-yl 3-((4-methyl-5-oxo-2,5-dihydrofuran-2-yl)oxy)-2-phenylacrylate], the “Phelipanche seed germination” value in the data set with P. aegyptiaca seeds is “lower activity”.
